Tests used:
ABCC1 = target: T1, ABCC1 (Homo sapiens, UniProt P33527); assay: daunorubicin accumulation assay (flow cytometry) in MDCKII-ABCC1 cells; format: cell-based; details: 2 µM daunorubicin, 1 h, read-out: IC50, inhibition of daunorubicin efflux by ABCC1
T1 construct: expressed in transfected cells; host or cells: MDCKII-ABCC1 (from Dr. Alfred Schinkel, The Netherlands Cancer Institute)
Protocol: The flow-cytometric inhibitory assay with daunorubicin and mitoxantrone was performed with minor modifications as described previously. MDCKII-par, MDCKII-ABCB1, MDCKII-ABCG2, and MDCKII-ABCC1 cell lines were seeded at densities of 22.0 × 10^4, 15.0 × 10^4, 25.0 × 10^4, and 22.0 × 10^4 cells/well, respectively, on a 12-well plate and then incubated for 24 h to reach approximately 70–80% confluence. Further steps including cell washing, the preparation of drug/model inhibitor dilutions, and their addition to cells were performed as described above. After the 10 min pre-incubation period, 2 µM daunorubicin (a substrate of ABCB1/ABCC1) or 1 µM mitoxantrone (ABCG2 substrate) were promptly added to all wells other than those containing background samples, then the plate was incubated for 1 h under standard conditions. The plates were subsequently placed on ice, the cells were washed twice with ice-cold 1× PBS, and 10× trypsin without phenol red was added. After complete trypsinization, the cells were vigorously resuspended in ice-cold 1× PBS containing 2% FBS. Samples were then transferred into test-tubes and kept on ice until their fluorescence could be measured using a flow cytometer (BD FACSCanto II, Allschwil, Switzerland). The excitation/emission wavelengths for daunorubicin and mitoxantrone were 490/565 and 640/670 nm, respectively.

HL60-ABCC1 cells = assay: XTT proliferation assay, HL60-ABCC1; format: cell-based; details: Homo sapiens, 48 h, read-out: IC50, sensitivity to ensartinib
Protocol: The MTT method is not readily adapted for use with suspension cell cultures, therefore the XTT assay was used to assess the proliferation of HL60 cells. Briefly, HL60-par, HL60-ABCB1, HL60-ABCG2, and HL60-ABCC1 cells were seeded at 2 × 10^4 cells/well in 96-well culture plates. Immediately after seeding, dilutions of the tested drugs or drug combinations were added to the cells. The plates were then incubated under standard conditions (37 °C, 5% CO2) for 48 h, after which XTT solution in PBS (1 mg/mL) and phenazine methosulfate (7.50 µg/mL) were added to the cells and the plates were incubated for another 5 h. Finally, the cells’ absorbance was measured at 450 nm using a microplate reader (Infinite M200, Tecan, Salzburg, Austria). This method was used to assess the effect of ABC transporters on sensitivity to ensartinib and in drug combination assays.

HepG2-CYP3A4 cells = assay: Docetaxel combination assay (MTT), HepG2-CYP3A4; format: cell-based, human; details: 1 µM docetaxel
Protocol: MTT proliferation assay was performed as described previously.
Cell viability was measured after a 48 h incubation using the MTT method as described above. […] Sensitization effects of < 0%, 0%, and >0% indicate antagonism, additivity, and synergism, respectively.

ABCB1, ABCG2, ABCC1 mRNA = assay: Gene induction study (qRT-PCR), ABC transporter mRNA; format: cell-based, human; details: 0.5 µM ensartinib; 24 and 48 h; Caco-2, LS174T, A549, NCI-H1299 cells
Protocol: Gene induction studies were performed with minor modifications as described recently. Although all gene induction studies involved the use of quantitative real-time reverse transcription PCR (qRT-PCR) to measure mRNA levels, the methods used for specific cell lines varied considerably. Therefore, they are described separately.
For transporter-oriented studies, A549 (24 × 10^4 cells/well), NCI-H1299 (18 × 10^4 cells/well), Caco-2 (50 × 10^4 cells/well), or LS174T (100 × 10^4 cells/well) cells were plated in 12-well plates 24 h before the experiment. Subsequently, the medium was replaced with fresh medium containing 0.5 µM ensartinib, 25 µM rifampicin, or 0.1% DMSO (vehicle control). […] The RNA yield was measured using a NanoDrop ND-1000 spectrophotometer (American Laboratory Trading, East Lyme, CT, USA) while RNA quality and integrity were verified by agarose gel electrophoresis. […] The expression of ABCB1, ABCG2 and ABCC1 was assessed using gb Easy PCR Master Mix and TaqMan qRT-PCR systems in 384-well plates according to the manufacturer´s instructions, amplifying 20 ng of cDNA per reaction. qRT-PCR was performed using QuantStudio 6 (Life Technologies, Carlsbad, CA, USA) with predefined thermal cycling conditions (95 °C for 3 min then 40 repeats of a cycle of 95 °C for 10 s and 60 °C for 20 s). […]

T1 sequence (P33527 whole entry): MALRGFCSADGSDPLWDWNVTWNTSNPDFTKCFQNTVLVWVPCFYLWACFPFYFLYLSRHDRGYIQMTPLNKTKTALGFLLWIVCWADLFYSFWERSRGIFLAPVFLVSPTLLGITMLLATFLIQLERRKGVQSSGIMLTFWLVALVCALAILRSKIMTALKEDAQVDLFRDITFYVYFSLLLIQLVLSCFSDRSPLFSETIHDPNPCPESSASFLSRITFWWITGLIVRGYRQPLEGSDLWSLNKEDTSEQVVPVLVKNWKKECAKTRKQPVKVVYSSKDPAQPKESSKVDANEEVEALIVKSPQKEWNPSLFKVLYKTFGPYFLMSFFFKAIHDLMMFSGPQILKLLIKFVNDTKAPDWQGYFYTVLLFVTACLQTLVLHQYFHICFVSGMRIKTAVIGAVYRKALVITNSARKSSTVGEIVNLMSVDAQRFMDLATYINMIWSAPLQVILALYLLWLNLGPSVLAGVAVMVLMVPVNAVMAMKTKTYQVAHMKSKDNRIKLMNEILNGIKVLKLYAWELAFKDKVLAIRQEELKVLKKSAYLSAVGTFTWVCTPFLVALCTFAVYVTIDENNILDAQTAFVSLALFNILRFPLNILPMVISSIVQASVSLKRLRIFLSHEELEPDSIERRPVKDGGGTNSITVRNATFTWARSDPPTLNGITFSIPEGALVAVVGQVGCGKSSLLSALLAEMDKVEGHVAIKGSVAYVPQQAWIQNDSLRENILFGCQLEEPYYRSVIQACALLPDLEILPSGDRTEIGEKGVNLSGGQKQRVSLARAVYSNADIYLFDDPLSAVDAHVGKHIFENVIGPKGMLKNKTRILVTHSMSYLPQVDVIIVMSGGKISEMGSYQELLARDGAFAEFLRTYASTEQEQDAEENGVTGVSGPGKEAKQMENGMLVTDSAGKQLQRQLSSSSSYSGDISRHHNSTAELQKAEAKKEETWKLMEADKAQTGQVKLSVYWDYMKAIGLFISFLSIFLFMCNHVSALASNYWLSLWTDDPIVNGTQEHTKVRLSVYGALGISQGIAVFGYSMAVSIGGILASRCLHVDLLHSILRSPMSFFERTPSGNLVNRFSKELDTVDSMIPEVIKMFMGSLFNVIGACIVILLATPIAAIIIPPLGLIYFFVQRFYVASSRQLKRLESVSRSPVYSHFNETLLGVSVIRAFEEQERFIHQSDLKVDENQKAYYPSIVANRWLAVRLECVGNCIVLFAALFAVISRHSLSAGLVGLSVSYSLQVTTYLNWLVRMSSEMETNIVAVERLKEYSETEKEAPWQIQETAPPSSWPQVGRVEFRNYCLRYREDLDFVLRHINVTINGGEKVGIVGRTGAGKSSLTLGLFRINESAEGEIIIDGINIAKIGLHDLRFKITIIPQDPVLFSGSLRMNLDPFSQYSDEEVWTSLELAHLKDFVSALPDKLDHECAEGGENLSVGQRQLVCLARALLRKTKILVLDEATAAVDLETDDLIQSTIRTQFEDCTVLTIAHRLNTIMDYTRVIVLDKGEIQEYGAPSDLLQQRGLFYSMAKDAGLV

Question: Which IC50 (ABCC1) does the source give for `C[C@@H]1CN(C(=O)c2ccc(NC(=O)c3cc(O[C@H](C)c4c(Cl)ccc(F)c4Cl)c(N)nn3)cc2)C[C@H](C)N1` [ensartinib, Ensartinib] here?
Answer: The IC50 was > 50 µM.

Question: What about the IC50 (HL60-ABCC1 cells) of the same compound?
Answer: The IC50 was 27.4 µM.

Question: What about the “docetaxel sensitization in CYP3A4-overexpressing cells” value (HepG2-CYP3A4 cells; 25 µM ensartinib (but not 15 µM), 48 h MTT) of the same compound?
Answer: Its value is “comparable to that induced by ketoconazole”.

Question: And the “sensitization effect of combination with docetaxel” value (HepG2-CYP3A4 cells; HepG2-CYP3A4, <0% antagonism, =0% additivity, >0% synergism)?
Answer: Its value is “synergistic”.

Question: What about the “change in mRNA levels of ABCB1, ABCG2, ABCC1” value (ABCB1, ABCG2, ABCC1 mRNA) of the same compound?
Answer: Its value is “did not increase or reduce the mRNA levels of ABCB1, ABCG2, or ABCC1 by more than 100% or 50%”.
